In patent US20220324865A1 (Bayer Aktiengesellschaft, priority 2018, published 2022) one finds IC50 data, which are given here for 26 molecules.

SMILES strings stand for the structures.

This assay concerns the target T1, human EP3 receptor (Homo sapiens, UniProt P43115).
T1 construct: expressed in transfected cells; host or cells: CHO K1 (Chinese Hamster Ovary), stably co-transfected with Galpha16 and mitochondrial clytin
T1 sequence (P43115 1-390): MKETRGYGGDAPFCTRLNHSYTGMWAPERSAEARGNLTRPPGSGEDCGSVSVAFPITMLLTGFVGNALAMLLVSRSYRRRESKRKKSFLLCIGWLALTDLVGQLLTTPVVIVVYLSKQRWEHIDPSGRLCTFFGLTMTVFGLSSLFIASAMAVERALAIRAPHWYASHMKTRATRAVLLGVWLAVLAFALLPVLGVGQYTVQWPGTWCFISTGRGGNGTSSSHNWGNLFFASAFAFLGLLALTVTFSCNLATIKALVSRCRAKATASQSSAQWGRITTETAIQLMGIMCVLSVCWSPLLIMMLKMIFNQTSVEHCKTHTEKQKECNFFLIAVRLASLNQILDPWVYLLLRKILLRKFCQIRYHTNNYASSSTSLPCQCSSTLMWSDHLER
Description: Cellular in vitro assay for determining EP3 receptor activity (human EP3 cell line, sulprostone-stimulated calcium luminescence). To be noted: CHO cells expressing human EP3 and mitochondrial Clytin; antagonist mode, sulprostone at EC50; read-out: EP3 CHO mtCLY ANTAG IC50. In kind it is cell-based. The method, boiled down: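 Antagonist activity was measured as inhibition of the luminescent calcium signal elicited by EC50 sulprostone, following 10 min compound pretreatment. The cell line was recombinant CHO K1 co-expressing human EP3, Gα16 and the photoprotein Clytin, reconstituted with coelenterazine.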
Turning to `Cc1cccc2ncc(-c3cn4nc(C(=O)NC(CN5CCCC5)c5ccccc5)c(C(C)C)c4c(=O)[nH]3)cc12` (centres unmarked) [Example 4-63, 3-Isopropyl-6-(5-methylquinolin-3-yl)-4-oxo-N-[1-phenyl-2-(pyrrolidin-1-yl)ethyl]-4,5-dihydropyrazolo[1,5-a]pyrazine-2-carboxamide], the half-inhibitory concentration (IC50) is 9.45 nM.

Turning to `COc1ccc2c(c1)CCCC2NC(=O)c1nn2cc(-c3cnc4cccc(C)c4c3)[nH]c(=O)c2c1C(C)C` (centres unmarked) [Example 4-64, 3-Isopropyl-N-(6-methoxy-1,2,3,4-tetrahydronaphthalen-1-yl)-6-(5-methylquinolin-3-yl)-4-oxo-4,5-dihydropyrazolo[1,5-a]pyrazine-2-carboxamide], the IC50 was found to be 2.55 nM.

Turning to `Cc1cccc2ncc(-c3cn4nc(C(=O)NC5CCOc6ccccc65)c(C(C)C)c4c(=O)[nH]3)cc12` (centres unmarked) [Example 4-65, N-(3,4-Dihydro-2H-chromen-4-yl)-3-isopropyl-6-(5-methylquinolin-3-yl)-4-oxo-4,5-dihydropyrazolo[1,5-a]pyrazine-2-carboxamide], the IC50 turned out to be 1.15 nM.

Take `Cc1cccc2ncc(-c3cn4nc(C(=O)NC(CO)c5cc(Cl)cc(Cl)c5)c(C(C)C)c4c(=O)[nH]3)cc12` (centres unmarked) [Example 4-66, N-[1-(3,5-Dichlorophenyl)-2-hydroxyethyl]-3-isopropyl-6-(5-methyl-3-quinolyl)-4-oxo-5H-pyrazolo[1,5-a]pyrazine-2-carboxamide]: the IC50 was 3.9 nM.

Turning to `Cc1cccc2ncc(-c3cn4nc(C(=O)N[C@@H](CO)c5ccccc5)c(C(C)C)c4c(=O)[nH]3)cc12` [Example 4-67, N-[(7R)-2-Hydroxy-1-phenylethyl]-6-(5-methylquinolin-3-yl)-4-oxo-3-(propan-2-yl)-4,5-dihydropyrazolo[1,5-a]pyrazine-2-carboxamide], the IC50 was 1.55 nM.

Consider `Cc1cccc2ncc(-c3cn4nc(C(=O)NC(c5ccccc5)C(F)F)c(C(C)C)c4c(=O)[nH]3)cc12` (centres unmarked) [Example 4-68, N-(2,2-Difluoro-1-phenylethyl)-3-isopropyl-6-(5-methyl-3-quinolyl)-4-oxo-5H-pyrazolo[1,5-a]pyrazine-2-carboxamide], for which the IC50 amounted to 3 nM.

As to `Cc1cccc2ncc(-c3cn4nc(C(=O)N[C@H]5c6ccccc6C[C@H]5O)c(C(C)C)c4c(=O)[nH]3)cc12` [Example 4-69, N-[(7S,2R)-2-Hydroxy-2,3-dihydro-1H-inden-1-yl]-6-(5-methylquinolin-3-yl)-4-oxo-3-(propan-2-yl)-4,5-dihydropyrazolo[1,5-a]pyrazine-2-carboxamide], the IC50 was 2 nM.

`Cc1cccc2ncc(-c3cn4nc(C(=O)NC(C)c5cccnc5)c(C(C)C)c4c(=O)[nH]3)cc12` (centres unmarked) [Example 4-70, 3-Isopropyl-6-(5-methyl-3-quinolyl)-4-oxo-N-[1-(3-pyridyl)ethyl]-5H-pyrazolo[1,5-a]pyrazine-2-carboxamide]: the IC50 was found to be 2.4 nM.

For `COc1ccc(C(C)NC(=O)c2nn3cc(-c4cnc5cccc(C)c5c4)[nH]c(=O)c3c2C(C)C)cc1F` (centres unmarked) [Example 4-71, N-[1-(3-Fluoro-4-methoxyphenyl)ethyl]-3-isopropyl-6-(5-methyl-3-quinolyl)-4-oxo-5H-pyrazolo[1,5-a]pyrazine-2-carboxamide], the IC50 was 2.4 nM.

For `Cc1cccc2ncc(-c3cn4nc(C(=O)NC5CCc6ccccc65)c(C(C)C)c4c(=O)[nH]3)cc12` (centres unmarked) [Example 4-72, N-(2,3-Dihydro-1H-inden-1-yl)-3-isopropyl-6-(5-methylquinolin-3-yl)-4-oxo-4,5-dihydropyrazolo[1,5-a]pyrazine-2-carboxamide], the IC50 stood at 6.05 nM.

For the molecule `Cc1cccc2ncc(-c3cn4nc(C(=O)NC5(c6ccccc6)CCCC5)c(C(C)C)c4c(=O)[nH]3)cc12` [Example 4-73, 6-(5-Methylquinolin-3-yl)-4-oxo-N-(1-phenylcyclopentyl)-3-(propan-2-yl)-4,5-dihydropyrazolo[1,5-a]pyrazine-2-carboxamide], the half-maximal inhibitory concentration (IC50) worked out at 2.35 nM.

`COc1ccc2c(c1)C(NC(=O)c1nn3cc(-c4cnc5cccc(C)c5c4)[nH]c(=O)c3c1C(C)C)CC(C)(C)O2` (centres unmarked) [Example 4-74, 3-Isopropyl-N-(6-methoxy-2,2-dimethyl-3,4-dihydro-2H-chromen-4-yl)-6-(5-methylquinolin-3-yl)-4-oxo-4,5-dihydropyrazolo[1,5-a]pyrazine-2-carboxamide]: the IC50 was 6.05 nM.

As for `Cc1cccc2ncc(-c3cn4nc(C(=O)NC(CO)c5ccc(Br)cc5)c(C(C)C)c4c(=O)[nH]3)cc12` (centres unmarked) [Example 4-75, N-[1-(4-Bromophenyl)-2-hydroxyethyl]-3-isopropyl-6-(5-methyl-3-quinolyl)-4-oxo-5H-pyrazolo[1,5-a]pyrazine-2-carboxamide], the IC50 came to 1.25 nM.

With `Cc1cccc2ncc(-c3cn4nc(C(=O)NC(c5cccc(F)c5)C(F)F)c(C(C)C)c4c(=O)[nH]3)cc12` (centres unmarked) [Example 4-76, N-[2,2-Difluoro-1-(3-fluorophenyl)ethyl]-3-isopropyl-6-(5-methyl-3-quinolyl)-4-oxo-5H-pyrazolo[1,5-a]pyrazine-2-carboxamide], the IC50 was determined as 3.15 nM.

With `Cc1cccc2ncc(-c3cn4nc(C(=O)NC5(c6ccccc6)CCOCC5)c(C(C)C)c4c(=O)[nH]3)cc12` [Example 4-77, 3-Isopropyl-6-(5-methylquinolin-3-yl)-4-oxo-N-(4-phenyltetrahydro-2H-pyran-4-yl)-4,5-dihydropyrazolo[1,5-a]pyrazine-2-carboxamide], the IC50 was determined as 0.835 nM.

As for `COc1ccc(C(NC(=O)c2nn3cc(-c4cnc5cccc(C)c5c4)[nH]c(=O)c3c2C(C)C)C2CC2)cc1` (centres unmarked) [Example 4-78, N-[Cyclopropyl(4-methoxyphenyl)methyl]-3-isopropyl-6-(5-methyl-3-quinolyl)-4-oxo-5H-pyrazolo[1,5-a]pyrazine-2-carboxamide], the IC50 was found to be 1.55 nM.

`COc1ccc2c(c1)OC(C)(C)CC2NC(=O)c1nn2cc(-c3cnc4cccc(C)c4c3)[nH]c(=O)c2c1C(C)C` (centres unmarked) [Example 4-79, 3-Isopropyl-N-(7-methoxy-2,2-dimethyl-3,4-dihydro-2-chromen-4-yl)-6-(5-methylquinolin-3-yl)-4-oxo-4,5-dihydropyrazolo[1,5-a]pyrazine-2-carboxamide]: the IC50 was 7.6 nM.

Turning to `Cc1cccc2ncc(-c3cn4nc(C(=O)NCc5ccc6[nH]c(=O)[nH]c6c5)c(C(C)C)c4c(=O)[nH]3)cc12` [Example 4-80, 6-(5-Methylquinolin-3-yl)-4-oxo-N-[(2-oxo-2,3-dihydro-1H-benzimidazol-5-yl)methyl]-3-(propan-2-yl)-4,5-dihydropyrazolo[1,5-a]pyrazine-2-carboxamide], the IC50 is 1.35 nM.

Take `Cc1cccc2ncc(-c3cn4nc(C(=O)NCc5cccc(CN6CCCC6)c5)c(C(C)C)c4c(=O)[nH]3)cc12` [Example 4-81, 6-(5-Methylquinolin-3-yl)-4-oxo-3-(propan-2-yl)-N-({3-[(pyrrolidin-1-yl)methyl]phenyl}methyl)-4,5-dihydropyrazolo[1,5-a]pyrazine-2-carboxamide]: the IC50 was 4.45 nM.

Turning to `Cc1cccc2ncc(-c3cn4nc(C(=O)NC(C)c5ccc(Cl)cc5Cl)c(C(C)C)c4c(=O)[nH]3)cc12` (centres unmarked) [Example 4-82, N-[1-(2,4-Dichlorophenyl)ethyl]-3-isopropyl-6-(5-methyl-3-quinolyl)-4-oxo-5H-pyrazolo[1,5-a]pyrazine-2-carboxamide], the IC50 stood at 6.25 nM.

As for `COc1ccc(C(CCO)NC(=O)c2nn3cc(-c4cnc5cccc(C)c5c4)[nH]c(=O)c3c2C(C)C)cc1` (centres unmarked) [Example 4-83, N-[3-Hydroxy-1-(4-methoxyphenyl)propyl]-3-isopropyl-6-(5-methyl-3-quinolyl)-4-oxo-5H-pyrazolo[1,5-a]pyrazine-2-carboxamide], the IC50 was 2 nM.

Consider `Cc1ccc2c(c1)C(NC(=O)c1nn3cc(-c4cnc5cccc(C)c5c4)[nH]c(=O)c3c1C(C)C)CC(C)(C)O2` (centres unmarked) [Example 4-84, 3-Isopropyl-6-(5-methylquinolin-3-yl)-4-oxo-N-(2,2,6-trimethyl-3,4-dihydro-2H-chromen-4-yl)-4,5-dihydropyrazolo[1,5-a]pyrazine-2-carboxamide], for which the IC50 is 6.95 nM.

For `Cc1ccc(-c2cn3nc(C(=O)NC(C)c4ccc(F)cc4)cc3c(=O)[nH]2)cc1C` (centres unmarked) [Example 5-1, 6-(3,4-Dimethylphenyl)-N-[1-(4-fluorophenyl)ethyl]-4-oxo-5H-pyrazolo[1,5-a]pyrazine-2-carboxamide], the IC50 was found to be 6.78 nM.

For `CC(NC(=O)c1cc2c(=O)[nH]c(-c3ccc4c(c3)OCCO4)cn2n1)c1ccc(F)cc1` (centres unmarked) [Example 5-2, 6-(2,3-Dihydro-1,4-benzodioxin-6-yl)-N-[1-(4-fluorophenyl)ethyl]-4-oxo-5H-pyrazolo[1,5-a]pyrazine-2-carboxamide], the IC50 was 1.65 nM.

In the case of `COc1ccc(C(CCO)NC(=O)c2cc3c(=O)[nH]c(-c4ccc5c(c4)OCCO5)cn3n2)cc1` (centres unmarked) [Example 5-3, 6-(2,3-Dihydro-1,4-benzodioxin-6-yl)-N-[3-hydroxy-1-(4-methoxyphenyl)propyl]-4-oxo-5H-pyrazolo[1,5-a]pyrazine-2-carboxamide], the IC50 amounted to 2.45 nM.

`COc1ccc(C(C)NC(=O)c2cc3c(=O)[nH]c(-c4ccc(C)c(C)c4)cn3n2)cn1` (centres unmarked) [Example 5-4, 6-(3,4-Dimethylphenyl)-N-[1-(6-methoxypyridin-3-yl)ethyl]-4-oxo-4,5-dihydropyrazolo[1,5-a]pyrazine-2-carboxamide]: the IC50 was 2.5 nM.
